Measurements taken from the CheMixHub viscosity set.
Values joined by “and” are separate entries in the source; they are usually repeats but may differ in a detail not shown here. Equal values may be shown once.

Assay: xn = mol fraction of the nth substance listed

CCC(C)O (stereo not given) + CCCCO
Conditions	viscosity [mPa·s]
303.15 K, 101 kPa, x2 = 0.8988	2.875

Cc1cccc(C)c1 + CCCCO
308.15 K, 101 kPa
Conditions	viscosity [mPa·s]
x2 = 0.0525	0.471
x2 = 0.1036	0.54
x2 = 0.19	0.553
x2 = 0.307	0.583
x2 = 0.4171	0.631
x2 = 0.5209	0.733
x2 = 0.619	0.815
x2 = 0.7117	0.947
x2 = 0.7995	1.131
x2 = 0.8828	1.323
x2 = 0.9619	1.556

O=S1(=O)CCCC1 + CCCCO
viscosity [mPa·s], 101 kPa
Conditions	x1 = 0.1066	x1 = 0.191	x1 = 0.2871	x1 = 0.3889	x1 = 0.4851	x1 = 0.5891	x1 = 0.6937	x1 = 0.7935	x1 = 0.9023
303.15 K	2.084	2.148	2.32	2.582	2.914	3.395	4.117	5.218	7.192
308.15 K	1.855	1.912	2.06	2.291	2.59	3.028	3.676	4.65	6.369
313.15 K	1.659	1.711	1.842	2.048	2.316	2.715	3.3	4.167	5.669

O=S1(=O)CCCC1 + CCCCOC(C)=O
viscosity [mPa·s], 101 kPa
Conditions	x1 = 0.3402	x1 = 0.7887	x2 = 0.0164
303.15 K	–	4.275	–
308.15 K	1.145	–	7.925

Nc1ccccc1Cl + CCCCOCCO
303.15 K, 101 kPa
Conditions	viscosity [mPa·s]
x1 = 0.1461	3.066
x1 = 0.2298	3.194
x1 = 0.3377	3.344
x1 = 0.4573	3.496
x1 = 0.563	3.619
x1 = 0.6667	3.722
x1 = 0.7494	3.786
x1 = 0.8351	3.833
x1 = 0.9459	3.859

O=S1(=O)CCCC1 + CCCCOCCO
303.15 K, 101 kPa
Conditions	viscosity [mPa·s]
x1 = 0.0491	1.94
x1 = 0.0999	1.87
x1 = 0.2	2.002
x1 = 0.2998	2.501
x1 = 0.3503	2.882
x1 = 0.3999	3.311
x1 = 0.4495	3.777
x1 = 0.4999	4.28
x1 = 0.5997	5.339
x1 = 0.7015	6.489
x1 = 0.7991	7.639
x1 = 0.8987	8.898
x1 = 0.9504	9.535

NCCCO + CCCC[N+](CCCC)(CCCC)CCCC.[Br-]
viscosity, 101.33 kPa
Conditions	293.15 K	298.15 K	303.15 K	308.15 K	313.15 K	318.15 K	323.15 K
x1 = 0.8	113.9 mPa·s	84.69 mPa·s	63.71 mPa·s	49.65 mPa·s	38.79 mPa·s	30.76 mPa·s	24.94 mPa·s
x1 = 0.9	79.29 mPa·s and 65.55 mPa·s	60.03 mPa·s and 50.16 mPa·s	46.01 mPa·s and 38.6 mPa·s	35.84 mPa·s and 29.98 mPa·s	28.31 mPa·s and 23.97 mPa·s	22.73 mPa·s and 19.27 mPa·s	18.62 mPa·s and 15.76 mPa·s

CCCCOCCOCCO + CCCO
viscosity [mPa·s], 101 kPa
Conditions	298.15 K	308.15 K	318.15 K
x1 = 0.011	1.95	1.525	1.246
x1 = 0.042	2.019	1.576	1.293
x1 = 0.074	2.098	1.633	1.337
x1 = 0.1191	2.202	1.711	1.409
x1 = 0.1629	2.325	1.802	1.488
x1 = 0.2086	2.446	1.889	1.576
x1 = 0.2587	2.587	2.024	1.669
x1 = 0.3152	2.748	2.149	1.767
x1 = 0.3289	2.787	2.179	1.795
x1 = 0.3796	2.959	2.283	1.89
x1 = 0.4568	3.213	2.435	2.034
x1 = 0.5093	3.371	2.548	2.123
x1 = 0.5833	3.615	2.714	2.263
x1 = 0.6316	3.764	2.814	2.346
x1 = 0.6882	3.928	2.932	2.442
x1 = 0.7604	4.153	3.085	2.564
x1 = 0.8285	4.361	3.228	2.677
x1 = 0.9045	4.598	3.388	2.797
x1 = 0.9511	4.734	3.481	2.875

Cc1cccc(C)c1 + CCCO
viscosity [mPa·s], 100 kPa
Conditions	298.15 K	308.15 K
x2 = 0.0641	0.5986	0.5469
x2 = 0.125	0.604	0.5561
x2 = 0.2247	0.6335	0.5935
x2 = 0.3538	0.694	0.633
x2 = 0.4693	0.779	0.6938
x2 = 0.5733	0.888	0.7826
x2 = 0.6675	1.006	0.8918
x2 = 0.7531	1.144	0.964
x2 = 0.8313	1.316	1.102
x2 = 0.903	1.509	1.277
x2 = 0.969	1.796	1.464

O=S1(=O)CCCC1 + CCCO
viscosity [mPa·s], 101 kPa
Conditions	x1 = 0.0761	x1 = 0.1702	x1 = 0.2436	x1 = 0.3357	x1 = 0.4393	x1 = 0.5374	x1 = 0.6403	x1 = 0.7554	x1 = 0.8835
303.15 K	1.648	1.731	1.863	2.093	2.443	2.894	3.567	4.714	6.855
308.15 K	1.477	1.551	1.671	1.876	2.191	2.595	3.198	4.214	6.07
313.15 K	1.329	1.399	1.506	1.691	1.976	2.342	2.884	3.788	5.424

CCCCOCCOCCO + CCN(CC)CC
viscosity [mPa·s], 100 kPa
Conditions	298.15 K	303.15 K	308.15 K
x1 = 0.05083	0.4832	0.4499	0.4246
x1 = 0.1	0.6109	0.5597	0.5234
x1 = 0.15	0.7524	0.6836	0.637
x1 = 0.2	0.9081	0.8131	0.7543
x1 = 0.3	1.246	1.108	1.021
x1 = 0.3999	1.641	1.447	1.324
x1 = 0.5	2.105	1.837	1.669
x1 = 0.5999	2.629	2.278	2.067
x1 = 0.6995	3.213	2.776	2.496
x1 = 0.8	3.822	3.271	2.93
x1 = 0.8998	4.474	3.817	3.419
x1 = 0.9499	4.793	4.075	3.631
